# Measured values: patent publication US5621133A (priority 1995, dated 1997)
# pEC50, pKi: −log10 of the molar value. Counter-ions that a name gives are not always drawn. Like-named read-outs stand apart in the source and are kept apart here.
# Experiments:
# [1] = target: dopamine D-2 receptor (Rattus norvegicus, UniProt P61169); assay: biochemical; type: binding
# Procedure: Homogenized rat caudate was the source of the D-2 receptors. […] The molar affinity of the compound for the receptor binding site was calculated by the same method used for the D-1 receptor assay, assuming a competitive interaction between the compound and the radiolabeled ligand.
# [2] = target: dopamine D-1 receptor (Rattus norvegicus, UniProt P18901); assay: biochemical; conditions: D-1 Ki, rat caudate, [125I]SCH-23982
# Description: The compounds compete with the radiolabeled ligand for occupancy of the receptors and the molar potency of each compound was quantified.
# The Ki values are inversely proportional to the affinity of the compound for the receptor.
# [3] = system: dopamine D-1 receptor; conditions: for Intrinsic Activity (adenylate cyclase assay): dopamine = 100, goldfish retina or rat striatum; for pEC50: read-out: EC50 (agonist activity in adenylate cyclase assay), tissue from goldfish retina or rat striatum
# Procedure: In order to determine agonist activity, cell-free tissue homogenates are incubated in an ionic buffer solution containing ATP and the compound being evaluated. The tissue was obtained from either goldfish retina or rat striatum.
# [4] = rat caudate, [125I]-p-aminophenylethyl spiroperidol, read-out: D-2 Ki
# Sequence of dopamine D-1 receptor (Rattus norvegicus, UniProt P18901) (P18901 whole entry): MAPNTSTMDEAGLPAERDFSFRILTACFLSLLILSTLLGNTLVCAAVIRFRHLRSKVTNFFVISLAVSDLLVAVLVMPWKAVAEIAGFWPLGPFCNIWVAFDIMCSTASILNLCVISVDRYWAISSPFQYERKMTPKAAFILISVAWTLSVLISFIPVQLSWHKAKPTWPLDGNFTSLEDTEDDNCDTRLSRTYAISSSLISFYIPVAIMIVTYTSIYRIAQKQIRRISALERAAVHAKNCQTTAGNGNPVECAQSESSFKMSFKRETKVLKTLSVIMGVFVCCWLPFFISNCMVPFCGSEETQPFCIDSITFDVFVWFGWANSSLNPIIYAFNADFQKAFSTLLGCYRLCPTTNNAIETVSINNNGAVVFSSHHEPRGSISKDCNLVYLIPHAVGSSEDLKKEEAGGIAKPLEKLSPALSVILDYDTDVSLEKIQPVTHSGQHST
# Sequence of dopamine D-2 receptor (P61169 whole entry): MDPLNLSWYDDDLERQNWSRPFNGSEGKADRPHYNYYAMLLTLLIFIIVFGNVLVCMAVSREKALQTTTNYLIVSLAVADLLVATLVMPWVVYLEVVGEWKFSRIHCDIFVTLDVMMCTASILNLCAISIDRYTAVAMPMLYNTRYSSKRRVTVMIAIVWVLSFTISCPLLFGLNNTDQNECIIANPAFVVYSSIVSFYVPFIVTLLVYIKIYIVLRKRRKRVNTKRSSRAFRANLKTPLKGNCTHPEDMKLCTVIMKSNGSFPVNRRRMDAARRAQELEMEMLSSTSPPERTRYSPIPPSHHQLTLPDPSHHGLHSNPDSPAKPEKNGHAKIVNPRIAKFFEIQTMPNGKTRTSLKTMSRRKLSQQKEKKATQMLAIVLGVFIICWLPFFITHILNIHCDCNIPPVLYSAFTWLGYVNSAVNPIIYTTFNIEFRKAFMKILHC
"pKi [1, 4]",pKi [2],Intrinsic Activity (adenylate cyclase assay) [3],Structure (SMILES),further results
< 5.00,6.54,135,NC[C@@H]1O[C@H](CCC2CCCCC2)Cc2c1ccc(O)c2O (relative stereo) [Example 91],pEC50 [3]: 6.17
< 5.00,6.10,42,CCCC(=O)Oc1ccc2c(c1OC(=O)CCC)CC(c1ccccc1)C=C2CN (stereo not drawn) [Example 17],pEC50 [3]: 5.55
< 5.00,5.36,36,NCC1CC2(CCCCCCCC2)Cc2c1ccc(O)c2O (stereo not drawn) [Example 236],pEC50 [3]: 6.15
6.09,6.28,124,CC(C)C(=O)NC[C@H]1Cc2c(ccc(O)c2O)[C@@H](CN)O1 (relative stereo) [Example 171],pEC50 [3]: 6.74
< 5.00,6.22,,COC(=O)CCC(=O)Oc1ccc2c(c1OC(=O)CCC(=O)OC)CC(c1ccccc1)C=C2CN (stereo not drawn) [Example 19],
< 5.00,,113,CC(C)(C)C1Cc2c(ccc(O)c2O)C(CN)O1 (stereo not drawn) [Example 102],
< 5.00,5.92,94,CNCC1OC2(CCOCC2)Cc2c1ccc(O)c2O (stereo not drawn) [Example 143],pEC50 [3]: 5.96
< 5.00,5.10,150,CCCC(=O)NC[C@@H]1Cc2c(ccc(O)c2O)[C@H](CN)O1 (relative stereo) [Example 169],pEC50 [3]: 6.70
5.05,7.66,134,NC[C@H]1O[C@@H](c2cccc(C(F)(F)F)c2)Cc2c1ccc(O)c2O (relative stereo) [Example 99],pEC50 [3]: 8.30
6.00,,,NC[C@H]1O[C@@H](c2ccccc2)Cc2c1ccc(O)c2O (relative stereo) [Example 49],
6.04,,,NC[C@@H]1O[C@H](c2ccccc2)Cc2c1ccc(O)c2O [Example 54],
6.00,7.46,81,CNC[C@@H]1O[C@H](C23CC4CC(CC(C4)C2)C3)Cc2c1ccc(O)c2O [Example 134],pEC50 [3]: 8.40
< 5.00,5.49,,CCCC1(CCC)C=C(CN)c2ccc(O)c(O)c2C1 [Example 192],
6.14,5.96,56,CC(C)(C)c1ccc(OC[C@H]2Cc3c(ccc(O)c3O)[C@@H](CN)O2)cc1 (relative stereo) [Example 57],pEC50 [3]: 7.52
5.52,,,C=CCN(C)C[C@H]1O[C@@H](C2CCCCC2)Cc2c1ccc(O)c2O (relative stereo) [Example 120],
< 5.00,6.28,104,NCC1OC2(CCOCC2)Cc2c1ccc(O)c2O (stereo not drawn) [Example 95],pEC50 [3]: 7.00
6.06,,,NCC1OC(c2ccccc2)Cc2c1ccc(O)c2O (stereo not drawn) [Example 96],
5.70,,103,Oc1ccc2c(c1O)CC(c1ccccc1)C1=C2CNCC1 (stereo not drawn) [Example 239],
< 5.00,,65,NC[C@H]1O[C@@H](C23CC4CC(CC(C4)C2)C3)Cc2c1cc(F)c(O)c2O (relative stereo) [Example 106],
,,119,C=CC[C@H]1Cc2c(ccc(O)c2O)[C@@H](CN)O1 (relative stereo) [Example 101],
,,51,C=CCN(C)C[C@H]1O[C@@H](CCCCCC)Cc2c1ccc(O)c2O (relative stereo) [Example 121],pEC50 [3]: 4.68
< 5.00,5.60,,"NC[C@@H]1O[C@H](C23CC4CC(CC(C4)C2)C3)Cc2c(O)c(O)cc(Br)c21 (relative stereo) [Example 107, 1-Aminomethyl-8-bromo-adamantyl-5,6-dihydroxy-3,4-dihydro-1H-2-benzopyran Hydrobromide]",
6.74,6.46,,CN1CCC2=C(C1)c1ccc(O)c(O)c1CC2CC1CCCC1 (stereo not drawn) [Example 245],
6.19,,84,C=CCCCC[C@@H]1Cc2c(ccc(O)c2O)[C@H](CN)O1 (relative stereo) [Example 66],
6.19,,,NC[C@@H]1O[C@H](c2cccc(O)c2)Cc2c1ccc(O)c2O (relative stereo) [Example 70],
< 5.00,,56,"Br.N[C@H]1CCc2cc(O)c(O)c3c2[C@H]1C[C@H](c1ccccc1)C3 (relative stereo) [Example 183, [1S*,8S*,9aR*]1-Amino-5,6-dihydroxy-8-phenyl-2,3,7,8,9,9a-hexahydrophenalene Hydrobromide]",

"pKi [1, 4]",pKi [2],Intrinsic Activity (adenylate cyclase assay) [3],Structure (SMILES),further results
6.06,6.24,,CN1CCC2=C(C1)c1ccc(O)c(O)c1CC21CCCCCCCC1 [Example 248],
5.70,5.82,,CC(C)(C)CC1Cc2c(ccc(O)c2O)C2=C1CCNC2 (stereo not drawn) [Example 242],
5.80,,84,Oc1ccc2c(c1O)CC(C1CCCCC1)C1=C2CNCC1 (stereo not drawn) [Example 202],
5.51,6.28,,CCCC1(CCC)Cc2c(ccc(O)c2O)C2=C1CCNC2 [Example 208],
6.36,,,NC[C@@H]1O[C@H](C2CCCCCCC2)Cc2c1ccc(O)c2O (relative stereo) [Example 76],
5.96,,,"C#CC[C@H]1Cc2c(ccc(O)c2O)[C@@H](CN)O1 (relative stereo) [Example 110, [1,3-cis]1-Aminomethyl-5,6-dihydroxy-3-(3'-prop-1'-ynyl)-3,4-dihydro-1H-2-benzopyran Hydrochloride]",
5.55,,,NC[C@@H]1O[C@H](C(c2ccccc2)c2ccccc2)Cc2c1ccc(O)c2O (relative stereo) [Example 71],
5.48,,120,Oc1ccc2c(c1O)CC(c1ccccc1)C1=C2CNCC1 (stereo not drawn) [Example 200],
,,70,"CC(=O)NCC1=CC(c2ccccc2)Cc2c1ccc(O)c2O (stereo not drawn) [Example 213, 1-Acetylaminomethyl-3-phenyl-5,6-dihydroxy-3,4-dihydronaphthalene]",
5.15,5.70,,"NCC1=CC2(CCCCCC2)Cc2c1ccc(O)c2O [Example 188, 1'-Aminomethyl-5,6'-dihydroxyspiro[cycloheptane-1,3'-(3',4'-dihydro-2'-H-naphthalene)]hydrobromide]",
< 5.00,5.49,,CC(C)(C)CC1C=C(CN)c2ccc(O)c(O)c2C1 (stereo not drawn) [Example 233],
< 5.00,,,C#CCN(C)C[C@H]1O[C@@H](C2CCCCC2)Cc2c1ccc(O)c2O (relative stereo) [Example 119],
6.14,,,"CNC[C@H]1O[C@@H](C2CCCCC2)Cc2c1ccc(O)c2O (relative stereo) [Example 111, [1,3-cis]3-Cyclohexyl-5,6-dihydroxy-1-methylaminomethyl-3,4-dihydro-1H-2-benzopyran Hydrochloride]",
5.92,,64,Oc1ccc2c(c1O)CC1(CCCCCCC1)C1=C2CNCC1 [Example 207],
,,,NC[C@H]1O[C@@H](C2CCCCC2)Cc2c1ccc(O)c2O (relative stereo) [Example 50],pKi ([1]; D-2 Ki): 5.92
5.35,,,COc1ccc(CC2Cc3c(ccc(O)c3O)C(CN)O2)cc1 (stereo not drawn) [Example 83],
5.59,6.15,,CN(C)C[C@H]1O[C@@H](CC2CCCCC2)Cc2c1ccc(O)c2O (relative stereo) [Example 148A],
4.27,,,CC(C)(C)[C@H]1Cc2c(ccc(O)c2O)[C@@H](CN)O1 (relative stereo) [Example 100],
4.89,,112,"CC(C)(C)[C@H]1Cc2c(ccc(O)c2O)[C@@H](CN)O1 (relative stereo) [Example 48, [1,3-cis]1-Aminomethyl 3-t-butyl-5,6-dihydroxy-3,4-dihydro-1H-2-benzopyran Hydrochloride]",
< 5.00,5.29,,Oc1ccc2c(c1O)CC(C13CC4CC(CC(C4)C1)C3)C1=C2CNCC1 (stereo not drawn) [Example 238],
7.04,,107,CCCCC[C@H]1Cc2c(ccc(O)c2O)[C@@H](CNC)O1 (relative stereo) [Example 144],
5.82,,110,Oc1ccc2c(c1O)C[C@@H](c1ccccc1)C1=C2CNCC1 [Example 201],
5.70,,88,NC[C@@H]1O[C@H](C23CC4CC(CC(C4)C2)C3)Cc2c1cc(F)c(O)c2O [Example 103],
5.66,,65,"Br.N[C@@H]1CCc2cc(O)c(O)c3c2[C@H]1C[C@H](c1ccccc1)C3 (relative stereo) [Example 182, [1R*,8S*,9aR*]1-Amino-5,6-dihydroxy-8-phenyl-2,3,7,8,9,9a-hexahydro-phenalene Hydrobromide]",
6.33,5.72,,Oc1ccc2c(c1O)C[C@@H](c1ccccc1)O[C@H]2[C@@H]1CCCN1 [Example 124],

Structure (SMILES),"pKi [1, 4]",pKi [2],Intrinsic Activity (adenylate cyclase assay) [3],further results
CC(C)(C)[C@@H]1Cc2c(ccc(O)c2O)[C@H](CN)C1 (relative stereo) [Example 195],,6.60,73,pEC50 [3]: 6.40
CCCC1(CCC)Cc2c(ccc(O)c2O)C(CN)C1 (stereo not drawn) [Example 198],,5.43,,
Oc1ccc2c(c1O)CC1(CCCCCC1)C1CCNCC21 (stereo not drawn) [Example 252],,,49,
NCC1=CC(c2ccccc2)Cc2c1ccc(OC(=O)NCc1ccccc1)c2OC(=O)NCc1ccccc1 (stereo not drawn) [Example 30],,< 5.00,,"pKi ([1]; D-2 Ki, rat caudate, [125I]-p-aminophenylethyl spiroperidol): 4.49"
